What was measured:
[1] = test system: aMCI subjects; assay: Neuropsychological tests outside the scanner (Buschke, Benton, Verbal Paired Associates); assay type: in vivo, human; details: levetiracetam 125 mg twice a day for two weeks
[2] = test system: aged-impaired (AI) rats; assay: Radial Arm Maze task, one-hour delay, levetiracetam (Example 1); assay type: in vivo, rat
Experimental: The effects of levetiracetam on the spatial memory retention of aged-impaired (AI) rats were assessed in a Radial Arm Maze (RAM) behavioral task using vehicle control and five different dosage levels of levetiracetam (1.25 mg/kg/day, 2.5 mg/kg/day, 5 mg/kg/day, 10 mg/kg/day and 20 mg/kg/day). RAM behavioral tasks were performed on ten AI rats. All six treatment conditions were tested on all ten rats, as described above for the MWM test. The RAM apparatus used consisted of eight equidistantly spaced arms. An elevated maze arm (7 cm width×75 cm length) projected from each facet of an octagonal center platform (30 cm diameter, 51.5 cm height). […] A food well (4 cm diameter, 2 cm deep) was located at the distal end of each arm. Froot Loops' (Kellogg Company) were used as rewards. […] Numerous extra maze cues surrounding the apparatus were also provided. The AI rats were initially subjected to a pre-training test (Chappell et al. Neuropharmacology 37: 481-487, 1998). […] In the habituation phase, rats were familiarized to the maze for an 8-minute session on four consecutive days. […] To counterbalance any potential bias, drug effect was assessed using ascending-descending dose series, i.e., the dose series was given first in an ascending order and then repeated in a descending order. […]

[3] = test system: somatostatin in DG hilus; assay: Somatostatin immunohistochemistry, hilar interneuron counts (Example 5); assay type: in vivo, rat; details: levetiracetam 10 mg/kg/day in osmotic minipumps for four weeks; aged-impaired rats
Description: Tissue was labeled with anti-SOM antiserum (Santa Cruz Biotechnology; cat. no. SC7819-P) using an established immunoperoxidase protocol and tissue sections were processed concurrently to minimize inter-replication variability (Haberman et al., 2009). The anti-SOM antiserum can detect somatostatin. Briefly, sections were washed in 0.1M phosphate-buffered saline (PBS) to remove cryoprotectant, and endogenous peroxidases were quenched in 0.3% H2O2 in PBS. After additional PBS washes, sections were blocked in 5% normal horse serum in PBS with 0.3% Triton. Sections were then incubated with primary antibody at a dilution of 1:1600 in PBS containing 0.15% Triton and 3% normal serum for 72 hours at 4° C. with agitation. […] The secondary antibody was detected with avidin-biotin complex (ABC Elite; Vector Laboratories Inc., Burlingame, Calif.) and the avidin-biotin complex was visualized with nickel-enhanced diaminobenzadine (Vector Laboratories Inc., Burlingame, Calif.). […]
Interneuron quantification was performed using a Zeiss Axioplan 2 microscope equipped with a motorized stage. […] Neuron counts were analyzed as the total number of hilar interneurons per hippocampal section for each rat.

[4] = test system: aMCI subjects; assay: fMRI activity of medial temporal lobe subregions during the explicit 3-alternative forced choice task (Examples 2 and 3); assay type: in vivo, human
Experimental: A within-subjects trial of 8 weeks duration, involving 17 amnestic MCI (aMCI) subjects and 17 age-matched controls with a low dose treatment of levetiracetam is conducted. […] Age-matched control subjects treated with placebo serve as a further control. […] The […]

[5] = test system: reelin in Entorhinal Cortex (EC2); assay: Reelin mRNA in situ hybridization in entorhinal cortex (Example 5); assay type: in vivo, rat
[6] = test system: aMCI subjects; assay: Explicit 3-alternative forced choice task performance (Examples 2 and 3); assay type: in vivo, human

CC[C@@H](C(N)=O)N1CCCC1=O [levetiracetam, (2S)-2-(2-oxopyrrolidin-1-yl)butanamide]
performance in Buschke Selective Reminding Test-Delayed Recall, Benton Visual Retention Test, Verbal Paired Associates Test-Recognition and -Delayed Recall [1]: fail to rescue performance
effective doses of levetiracetam in the animal model (radial arm maze errors) ([2]; AI rats, levetiracetam on its own): 5 to 10 mg/kg
reduction of the number of errors in the radial arm maze ([2]; levetiracetam on its own at 1.25 mg/kg or 2.5 mg/kg): not at 1.25 mg/kg or 2.5 mg/kg
levels of somatostatin in DG hilus (SOM-immunoreactive hilar neurons) [3]: restores the levels of somatostatin in DG hilus
DG/CA3 hyperactivity during memory judgments ([4]; levetiracetam 62.5 mg BID for two weeks, aMCI subjects (N=20)): does not significantly reduce
entorhinal cortex (EC) activity during memory judgments ([4]; levetiracetam 125 mg twice a day for two weeks, aMCI subjects): increases EC activity
DG/CA3 activity during lure stimuli correctly identified as similar ([4]; levetiracetam 125 mg twice a day for two weeks, vs placebo in same aMCI subjects): reduces DG/CA3 hyper-activity
DG/CA3 hyperactivity during memory judgments ([4]; levetiracetam 250 mg BID for two weeks, aMCI subjects (N=17)): does not significantly reduce
reelin mRNA expression in the lateral entorhinal cortex vs AI-VEH ([5]; levetiracetam 10 mg/kg/day for 28 days, AI rats): significantly increased the expression of reelin
levels of reelin in Entorhinal Cortex (EC2) ([5]; levetiracetam 10 mg/kg/day in osmotic minipumps for four weeks, aged-impaired rats): restores the levels of reelin in Entorhinal Cortex (EC2)
performance in the explicit 3-alternative forced choice task ([6]; levetiracetam 62.5 mg BID for two weeks): improves significantly
performance in the explicit 3-alternative forced choice task ([6]; levetiracetam 125 mg twice a day for two weeks): improves significantly
performance in the explicit 3-alternative forced choice task ([6]; levetiracetam 250 mg BID for two weeks): does not significantly improve

Reference: patent US20230270753A1, “COMBINATIONS OF GABAA ALPHA 5 AGONISTS AND SV2A INHIBITORS AND METHODS OF USING IN THE TREATMENT OF COGNITIVE IMPAIRMENT” (AGENEBIO, INC., priority 2020, published 2023)
